{"source": "patent US9592226B2", "about": "“Solenopsin and derivatives, therapeutic compositions; and methods related thereto” (priority 2013, dated 2017)", "key": {"[1]": {"tested_on": "A375 (human melanoma) cells", "experiment": "Proliferation study, A375 cells (Coulter Counter)", "type": "cell-based", "conditions": "10 μM, 24 h, cell count vs DMSO", "protocol": "50,000 cells/well were plated and treated for 24 h with each compound. The first DMSO bar in each chart serves as control for (+)-solenopsin A, (−)-solenopsin A, and ceramide C2. The second DMSO bar is the control for S11-S15.\n(§1) Different analogs of solenopsin were synthesized (FIG. 1) in order to explore their structure-activity relationships. The aliphatic side chains of S14 and S13 are 4 and 8 carbons longer compared to solenopsin, respectively. S11 has an 8-carbon longer side chain, as well as an extra methyl group in the 4-position of the piperidine ring. S15 has an 11-carbon side chain similar to solenopsin, but the first carbon in the side chain is hydroxylated. Also, S15 lacks the methyl group in the 2-position of the piperidine ring. All the analogs together with (−)- and (+)-solenosin A, and the isomeric mixture of the two cis-isomers of solenopsin (S12) were tested, at 10 μM, on two different human melanoma cell lines (A375 and A2058) and one murine angiosarcoma cell line (SVR) (FIG. 2). The A375 and A2058 melanoma cell lines express mutant Braf and the SVR murine angiosarcoma cell line expresses mutant Hras. One important difference between the two human melanoma cell lines is the A2058 is PTEN null, whereas A375 is not.\n(§2) A375 (human melanoma), A2058 (human melanoma), or SVR (murine angiosarcoma) cells were plated at a concentration of 50,000 cells/well. The cells were treated with 10 μM of (−)-solenopsin A, (+)-solenopsin A, or analogs (S11-S15) for 24 hours, at which point cells were counted with a Coulter Counter."}, "[2]": {"tested_on": "A2058 (human melanoma) cells", "experiment": "Proliferation study, A2058 cells (Coulter Counter)", "type": "cell-based", "conditions": "10 μM, 24 h, cell count vs DMSO", "text": "as §1, §2"}, "[3]": {"tested_on": "SVR (murine angiosarcoma) cells", "experiment": "Proliferation study, SVR cells (Coulter Counter)", "type": "cell-based", "conditions": "10 μM, 24 h, cell count vs DMSO", "text": "as §1, §2"}, "Akt": {"tested_on": "Akt", "experiment": "FRET biosensor AktAR, Akt activity in NIH3T3 cells", "type": "cell-based, murine", "conditions": "10 μM, 1 h", "protocol": "(§3) In order to determine whether solenopsin A and analogs have similar modes of action to ceramide, a series of fluorescent biosensors were employed for the PI3K/Akt pathway. […] No significant inhibition could be seen for any of the other solenopsin analogs (FIG. 4).\n(§4) PARE was generated by sandwiching full-length PDK1 between a fluorescent protein pair (FRET pair), ECFP and citrine, and a motif generated from the Lyn-kinase gene was added to the 5′-end to target the construct to raft microdomains. AktAR was generated by a fluorescent protein pair, cerulean and cpVE172, sandwiching a forkhead-associated binding domain (FHA1) and an Akt substrate domain (FOXO). PH(Akt)-citrine was constructed by attaching the yellow fluorescent protein (citrine) to the C-terminus of PH domain of Akt1, therefore the translocation of Akt PH domain can be detected by increase of yellow fluorescence at plasma membrane.\n(§5) NIH3T3 cells were plated and grown to 40% confluency. […] The data was analyzed with Metafluor 6.2 software (Universal Imaging, Downingtown, Pa.). Cell regions were selected and fluorescence images were background-corrected by deducting the background (regions with no cells) from the emission intensities of CFP or YFP. […] For analysis of PH (Akt) domain translocation (PH(Akt)-citrine), the ratio of intensities of citrine at cell membrane and cytosol were calculated after background correction. […]"}, "PDK1": {"molecular_target": "T1, PDK1 (Homo sapiens, UniProt O15530)", "T1 construct": "PARE was generated by sandwiching full-length PDK1 between a fluorescent protein pair (FRET pair), ECFP and citrine; expressed in transfected cells; host or cells: NIH3T3", "T1 sequence (O15530 1-556)": "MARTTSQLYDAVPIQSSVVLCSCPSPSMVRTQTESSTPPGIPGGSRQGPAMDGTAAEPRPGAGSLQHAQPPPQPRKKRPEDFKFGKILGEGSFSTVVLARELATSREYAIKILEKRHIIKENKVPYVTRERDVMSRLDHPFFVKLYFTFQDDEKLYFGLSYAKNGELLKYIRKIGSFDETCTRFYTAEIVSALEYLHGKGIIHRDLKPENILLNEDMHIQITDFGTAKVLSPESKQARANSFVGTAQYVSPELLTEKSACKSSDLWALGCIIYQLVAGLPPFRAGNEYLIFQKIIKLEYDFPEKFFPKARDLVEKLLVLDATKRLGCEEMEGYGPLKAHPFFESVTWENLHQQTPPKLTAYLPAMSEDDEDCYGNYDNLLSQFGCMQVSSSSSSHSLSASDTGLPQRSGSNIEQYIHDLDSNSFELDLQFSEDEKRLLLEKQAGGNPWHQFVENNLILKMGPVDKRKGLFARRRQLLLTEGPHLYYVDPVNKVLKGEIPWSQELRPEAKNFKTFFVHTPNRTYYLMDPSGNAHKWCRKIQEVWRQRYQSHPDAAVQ", "experiment": "FRET biosensor Lyn-PARE, PDK1 activation in membrane rafts of NIH3T3 cells", "type": "cell-based, murine", "conditions": "10 μM, 1 h", "protocol": "as §3, §4, §5"}, "PH domain of Akt1": {"molecular_target": "T2, PH domain of Akt1 (Homo sapiens, UniProt P31749)", "T2 construct": "attaching the yellow fluorescent protein (citrine) to the C-terminus of PH domain of Akt1; expressed in transfected cells; host or cells: NIH3T3", "T2 sequence (P31749 5-108 limits assumed)": "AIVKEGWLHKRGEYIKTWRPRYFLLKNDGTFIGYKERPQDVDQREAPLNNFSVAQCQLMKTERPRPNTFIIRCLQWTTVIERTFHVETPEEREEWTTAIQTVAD", "experiment": "PH(Akt)-citrine, Akt translocation in NIH3T3 cells", "type": "cell-based, murine", "conditions": "10 μM, 1 h", "protocol": "as §3, §4, §5"}, "UM-SCC1A cells": {"tested_on": "UM-SCC1A cells", "experiment": "Oxygen consumption rate (Seahorse) in UM-SCC1A cells", "type": "cell-based, human", "conditions": "10 μM, 24 h", "protocol": "UM-SCC1A cells were plated 15,000/well and treated for 24 h with 10 μM of (+)-solenopsin A ((+) Sol. A), (−)-solenopsin A ((−) Sol. A), and solenopsin analogs S11-S15. Oxygen consumption rate (OCR) was measured as pmoles O2/minute using a Seahorse Biosciences instrument. Data shown are an average of three experiments±s.d.\nAt least not in Braf mutated cell lines, such as A375 and A2058. One possibility is that solenopsin, like ceramide, may also localize to mitochondria, and cause mitochondrial induced cell death. Cellular oxygen consumption rate can be indicative of mitochondrial function. Therefore, to investigate if solenopsin A and analogs do alter mitochondrial function, UM-SCC1A (human head and neck SCC) cells were then treated with 10 μM compound or the equivalent amount of DMSO and incubated for 24 hours. A SeaHorse Bioscience instrument was used to measure the oxygen consumption rate (OCR). […] Mitophagy can be one reason for decreased OCR, but further assays are needed to confirm the cause for the observed differences.\nUM-SCC1A cells were plated 15,000 per well in 200 μl DMEM supplemented with 10% FBS and 1% penicillin-streptomycin in each well of a 96-well Seahorse plate and incubated overnight at 37° C. with 5% CO2. Cells were then treated with 10 μM compound or the equivalent amount of DMSO and incubated for 24 hours. OCR was measured as pmoles O2/minute using the Seahorse Biociences instrument per manufacturer's instructions. Protein amounts in each well were then quantified using the Thermo Scientific Pierce Protein Assay, per manufacturer's instructions."}, "A375 cells": {"tested_on": "A375 cells", "experiment": "Superoxide (ROS) by DHE fluorescence, A375 cells", "type": "cell-based, human", "conditions": "10 μM, 24 h", "protocol": "Cells were treated for 24 h with 10 μM of (+)-solenopsin A ((+) Sol. A), (−)-solenopsin A ((−) Sol. A), and solenopsin analogs S11-S15. Cells were trypsined and incubated for 10 min in 10 μM dihydroethedium (DHE), followed by analysis with a FACScan flow cytometer. Data shown are an average of three experiments±s.d.\nA375 or SVR cells were plated in 6 cm dishes. After cells had adhered to the plates, they were treated for 24 h with 10 μM DMSO solutions of (+)-solenopsin A, (−)-solenopsin A, or analogs (S11-S15) at which time the media was aspirated. Cells were washed with 2 mL PBS then treated with 0.05% trypsin/0.53 mM EDTA (Fisher) for 3 min at RT. Cells were collected and then pelleted at 600 g for 2 min. The supernatant was aspirated and the cells were suspended in 10 uM dihydroethidium (DHE) (Life Technologies) and incubated for 10 min in the dark at RT while shaking Following this incubation, cells were kept until counting on a Becton Dickinson FACScan flow cytometer. 10,000 cells were counted and analyzed by FlowJo 7.6.4. Mean values of DHE fluorescence intensity were compared."}}, "data": [{"smiles": "CCCCCCCCCCCCCCCCCCCC1CCCC(C)N1", "note": "(centres unmarked) [Compound S13, 2-Methyl-6-nonadecylpiperidine]", "values": [{"measurement": "antiproliferative effect", "setting": "[1]", "value": "lower antiproliferative effect than S12"}, {"measurement": "antiproliferative effect", "setting": "[2]", "value": "lower antiproliferative effect than S12"}, {"measurement": "antiproliferative effect", "setting": "[3]", "value": "lower antiproliferative effect than S12"}, {"measurement": "inhibition of Akt activity (AktAR)", "setting": "Akt", "value": "some inhibition"}, {"measurement": "inhibition of PDK1 activation (Lyn-PARE)", "setting": "PDK1", "value": "some inhibition"}, {"measurement": "inhibition of Akt translocation (PH(Akt)-citrine)", "setting": "PH domain of Akt1", "value": "some inhibition"}, {"measurement": "oxygen consumption rate (OCR) compared to DMSO control", "setting": "UM-SCC1A cells", "value": "slightly reduced OCR"}, {"measurement": "effect on superoxide levels (DHE fluorescence)", "setting": "A375 cells", "value": "no effect on superoxide levels"}]}]}
